According to US7786141B2 (Vertex Pharmaceuticals Incorporated, priority 2004, dated 2010):

What was measured:
M1 muscarinic receptor = target: T1, M1 muscarinic receptor (Homo sapiens, UniProt P11229); assay: Functional mobilization of intracellular calcium (FLIPR) in M1-CHO cells; assay type: cell-based; conditions: Table 4; for Emax: 100% efficacy is the maximum response obtained with the Carbachol control; for M1 Activity: modulating M1 receptor
T1 construct: expressed in transfected cells; host or cells: CHO (M1-CHO)
T1 sequence (P11229 1-460): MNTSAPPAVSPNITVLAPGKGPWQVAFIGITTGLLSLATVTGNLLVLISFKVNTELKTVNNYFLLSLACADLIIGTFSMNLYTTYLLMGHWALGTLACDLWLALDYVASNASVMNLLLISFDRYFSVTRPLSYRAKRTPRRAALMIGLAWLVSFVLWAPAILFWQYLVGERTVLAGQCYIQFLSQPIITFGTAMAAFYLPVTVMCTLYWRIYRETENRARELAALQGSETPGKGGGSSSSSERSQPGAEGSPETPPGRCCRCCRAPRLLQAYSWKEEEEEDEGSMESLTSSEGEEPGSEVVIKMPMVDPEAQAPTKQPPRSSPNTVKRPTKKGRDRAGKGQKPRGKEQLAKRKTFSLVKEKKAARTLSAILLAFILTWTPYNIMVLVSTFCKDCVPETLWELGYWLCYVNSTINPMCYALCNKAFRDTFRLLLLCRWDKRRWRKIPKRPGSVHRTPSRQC
How it was run: (§1)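 Steps: seed M1- or M4-CHO cells 18-24 hrs ahead; load calcium dye with 1 mM probenecid; add test compound (0.5% DMSO final), either alone for agonism or 15 min before EC80 carbachol for inhibition; record FLIPR fluorescence for 60 sec.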

M4 muscarinic receptor = target: T2, M4 muscarinic receptor (Homo sapiens, UniProt P08173); assay: Functional mobilization of intracellular calcium (FLIPR) in M4-CHO cells; assay type: cell-based; conditions: Table 4; for Emax: 100% efficacy is the maximum response obtained with the Carbachol control; for M4 Activity: modulating M4 receptor
T2 construct: expressed in transfected cells; host or cells: CHO (M4-CHO)
T2 sequence (P08173 1-479): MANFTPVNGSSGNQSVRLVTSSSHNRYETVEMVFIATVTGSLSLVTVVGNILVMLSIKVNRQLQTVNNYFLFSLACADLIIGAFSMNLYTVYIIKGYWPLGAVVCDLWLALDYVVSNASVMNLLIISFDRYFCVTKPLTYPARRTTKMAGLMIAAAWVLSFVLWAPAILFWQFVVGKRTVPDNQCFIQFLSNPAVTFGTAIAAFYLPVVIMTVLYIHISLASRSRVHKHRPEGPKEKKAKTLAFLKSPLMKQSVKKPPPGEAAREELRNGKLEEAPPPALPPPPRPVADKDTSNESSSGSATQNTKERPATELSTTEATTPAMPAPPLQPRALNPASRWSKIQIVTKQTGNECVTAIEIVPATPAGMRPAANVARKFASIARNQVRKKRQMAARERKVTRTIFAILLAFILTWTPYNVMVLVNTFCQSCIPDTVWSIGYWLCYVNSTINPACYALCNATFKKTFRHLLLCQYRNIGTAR
How it was run: as §1

SMILES	Emax (M1 muscarinic receptor) [%]	M1 Activity (M1 muscarinic receptor)	Emax (M4 muscarinic receptor) [%]	M4 Activity (M4 muscarinic receptor)
CC(=O)N1CC2(CCN(C3CCN(c4cncc(-c5ccc(F)cc5)n4)CC3)CC2)c2ccccc21 [compound 556]	25 to 100	x (activity was measured to be greater than 5.0 μM)	< 25	x (activity was measured to be greater than 5.0 μM)
CC(C)OC(=O)N1CC[C@@H](CN2CCC3(CC2)CN(C(=O)N(C)C)c2ccc(F)cc23)C1 [compound 558]	25 to 100	xxx (activity was measured to be less than 2.0 μM)	25 to 100	xxx (activity was measured to be less than 2.0 μM)
CCOC(=O)N1CCC(N2CCC3(CC2)CN(C(C)=O)c2c(-c4ccoc4)cccc23)CC1 [compound 559]	25 to 100	xxx (activity was measured to be less than 2.0 μM)	25 to 100	x (activity was measured to be greater than 5.0 μM)
CCOC(=O)N1CCC(N2CCC3(CC2)CN(C(C)=O)c2cccc(OC)c23)CC1 [compound 560]	25 to 100	xxx (activity was measured to be less than 2.0 μM)	< 25	x (activity was measured to be greater than 5.0 μM)
CN(C)C(=O)N1CC2(CCN(C3CCN(c4ccsc4)CC3)CC2)c2cc(F)ccc21 [compound 561]	25 to 100	x (activity was measured to be greater than 5.0 μM)	25 to 100	xx (activity was measured to be between 2.0 μM and 5.0 μM)
C#Cc1ccc2c(c1)C1(CCN(C3CCN(C(=O)OCC)CC3)CC1)CN2C(C)=O [compound 563]	> 100	xxx (activity was measured to be less than 2.0 μM)	25 to 100	xxx (activity was measured to be less than 2.0 μM)
C#CCOC(=O)N1CC[C@@H](CN2CCC3(CC2)CN(C(C)=O)c2cccc(C)c23)C1 [compound 564]	25 to 100	xxx (activity was measured to be less than 2.0 μM)	25 to 100	xxx (activity was measured to be less than 2.0 μM)
C#CCCOC(=O)N1CCC(N2CCC3(CC2)CN(CCOC)c2ccc(F)cc23)CC1 [compound 565]	25 to 100	xxx (activity was measured to be less than 2.0 μM)	25 to 100	xxx (activity was measured to be less than 2.0 μM)
COc1cc2c(cc1OC)C1(CCN(C3CC(C)(C)CC(C)(C)C3)CC1)CC2NC(C)=O (stereo not shown) [compound 566]	< 25	x (activity was measured to be greater than 5.0 μM)	< 25	x (activity was measured to be greater than 5.0 μM)
CCOC(=O)N1CCC(N2CCC3(CC2)CN(c2ncccn2)c2ccc(F)cc23)CC1 [compound 567]	25 to 100	xxx (activity was measured to be less than 2.0 μM)	25 to 100	xxx (activity was measured to be less than 2.0 μM)
CC(=O)N[C@H]1CCC2(CCN(CCC3CCCCC3)CC2)c2ccccc21 [compound 568]	25 to 100	xxx (activity was measured to be less than 2.0 μM)	< 25	xxx (activity was measured to be less than 2.0 μM)
COc1ccc([C@@H](C)N[C@H]2CC3(CCN(CC4CC5C=CC4C5)CC3)c3cc(Cl)ccc32)cc1 (stereo partly shown) [compound 569]	25 to 100	xx (activity was measured to be between 2.0 μM and 5.0 μM)	25 to 100	xx (activity was measured to be between 2.0 μM and 5.0 μM)
CN(C)C(=O)N1CC2(CCN(C[C@@H]3CCN(c4nccs4)C3)CC2)c2cc(F)ccc21 [compound 570]	25 to 100	xx (activity was measured to be between 2.0 μM and 5.0 μM)	25 to 100	xxx (activity was measured to be less than 2.0 μM)
COCCN1CC2(CCN(C3CCN(C(=O)OC(C)C)CC3)CC2)c2cc(F)ccc21 [compound 571]	25 to 100	xxx (activity was measured to be less than 2.0 μM)	25 to 100	xxx (activity was measured to be less than 2.0 μM)
Cc1noc(C)c1C(=O)N1CCC(N2CCC3(CC2)CN(C(=O)N(C)C)c2ccc(F)cc23)CC1 [compound 572]	25 to 100	xx (activity was measured to be between 2.0 μM and 5.0 μM)	< 25	x (activity was measured to be greater than 5.0 μM)
C#CCOC(=O)N1CC[C@H](CN2CCC3(CC2)CN(C(C)=O)c2cccc(C)c23)C1 [compound 573]	25 to 100	xxx (activity was measured to be less than 2.0 μM)	25 to 100	xxx (activity was measured to be less than 2.0 μM)
C#CC(=O)N1CCC(N2CCC3(CC2)CN(C(=O)N(C)C)c2ccc(F)cc23)CC1 [compound 574]	25 to 100	xx (activity was measured to be between 2.0 μM and 5.0 μM)	25 to 100	xxx (activity was measured to be less than 2.0 μM)
CC(=O)N[C@H]1CCC2(CCN(CCC3CCN(C(=O)OC(C)(C)C)CC3)CC2)c2ccccc21 [compound 575]	< 25	x (activity was measured to be greater than 5.0 μM)	< 25	x (activity was measured to be greater than 5.0 μM)
O=C(N[C@H]1CCC2(CCN(CC3CC4C=CC3C4)CC2)c2ccccc21)C1CC1 (stereo partly shown) [compound 576]	25 to 100	xxx (activity was measured to be less than 2.0 μM)	25 to 100	xxx (activity was measured to be less than 2.0 μM)
CC(=O)N1CC2(CCN(CC3CC3)CC2)c2cc(F)ccc21 [compound 577]	< 25	x (activity was measured to be greater than 5.0 μM)	< 25	x (activity was measured to be greater than 5.0 μM)
CCC#CCOC(=O)N1CC[C@H](CN2CCC3(CC2)CN(C(C)=O)c2ccccc23)C1 [compound 578]	25 to 100	xxx (activity was measured to be less than 2.0 μM)	25 to 100	xxx (activity was measured to be less than 2.0 μM)
CCOC(=O)N1CCC(N2CCC3(CC2)CN(C(C)=O)c2c(F)cc(F)cc23)CC1 [compound 579]	25 to 100	xxx (activity was measured to be less than 2.0 μM)	25 to 100	xxx (activity was measured to be less than 2.0 μM)
CCOC(=O)N1C2CCC1CC(N1CCC3(CC1)CN(C(C)=O)c1ccc(S(C)(=O)=O)cc13)C2 (stereo not shown) [compound 580]	25 to 100	xxx (activity was measured to be less than 2.0 μM)	25 to 100	x (activity was measured to be greater than 5.0 μM)
CC(=O)N[C@H]1CCC2(CCN(CCC3CC4CCC3C4)CC2)c2ccccc21 (stereo partly shown) [compound 581]	25 to 100	xxx (activity was measured to be less than 2.0 μM)	< 25	xxx (activity was measured to be less than 2.0 μM)
CCOC(=O)N1C2CCC1CC(N1CCC3(CC1)CN(C(C)=O)c1ccc(C(F)(F)F)cc13)C2 (stereo not shown) [compound 583]	25 to 100	xxx (activity was measured to be less than 2.0 μM)	25 to 100	xxx (activity was measured to be less than 2.0 μM)
CN(C)C(=O)N1CC2(CCN(C[C@@H]3CCN(C(=O)OCC4CC4)C3)CC2)c2cc(F)ccc21 [compound 584]	25 to 100	xxx (activity was measured to be less than 2.0 μM)	25 to 100	xxx (activity was measured to be less than 2.0 μM)
CCOC(=O)N1CCC(N2CCC3(CC2)CN(c2ccccn2)c2ccc(F)cc23)CC1 [compound 585]	25 to 100	xxx (activity was measured to be less than 2.0 μM)	25 to 100	xxx (activity was measured to be less than 2.0 μM)
COC(=O)NC1CC2(CCN(C3C[C@@H]4CC[C@@H]3C4)CC2)c2ccccc21 (stereo partly shown) [compound 586]	25 to 100	xxx (activity was measured to be less than 2.0 μM)	25 to 100	xxx (activity was measured to be less than 2.0 μM)
